Key:
CB2 receptor = target: T1, CB2 receptor (Rattus norvegicus, UniProt Q9QZN9); test: Cannabinoid CB2 receptor-binding activity ([3H]CP55940 binding experiment), rat spleen membrane specimen
T1 construct: from tissue; host or cells: rat spleen membrane specimen
T1 sequence (Q9QZN9 1-360): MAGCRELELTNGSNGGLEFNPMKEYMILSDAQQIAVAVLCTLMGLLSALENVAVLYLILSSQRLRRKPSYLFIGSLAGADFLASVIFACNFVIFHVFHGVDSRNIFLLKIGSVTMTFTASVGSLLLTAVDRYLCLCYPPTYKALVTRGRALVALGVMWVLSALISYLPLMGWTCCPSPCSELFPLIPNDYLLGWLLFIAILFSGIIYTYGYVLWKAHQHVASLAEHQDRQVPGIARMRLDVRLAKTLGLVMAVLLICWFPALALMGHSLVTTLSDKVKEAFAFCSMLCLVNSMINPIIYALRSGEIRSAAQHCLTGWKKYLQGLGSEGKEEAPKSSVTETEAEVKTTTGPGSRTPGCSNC
Description: A test was carried out according to the method of Hillard et al. [The Journal of Pharmacology and Experimental Therapeutics, vol. 289, p. 1427 (1999)]. A rat forebrain membrane specimen and a rat spleen membrane specimen were prepared and used in a binding experiment for a CB1 receptor and a binding experiment for a CB2 receptor, respectively. The membrane specimen (forebrain: final concentration of 0.5 mg of protein/mL, spleen: final concentration of 2 mg of protein/mL) was incubated together with a test compound and [^3H]CP55940 (manufactured by PerkinElmer) ((−)-cis-3-[2-hydroxy-[3,5-^3H]-4-(1,1-dimethylheptyl)phenyl]-trans-4-(3-hydroxypropyl)cyclohexanol)) (final concentration: 0.5 nmol/L) in an assay buffer (50 mmol/L Tris-HCl buffer (pH 7.4), 1 mmol/L EDTA and 3 mmol/L MgCl2) containing 0.1% bovine serum albumin at 25° C. for 1 hour, and the resulting mixture was filtered using a glass filter GF/C (manufactured by Whatman) treated with 1% polyethyleneimine. After the glass filter was washed with the assay buffer containing 0.2% bovine serum albumin, the radioactivity on the glass filter was measured using a liquid scintillation counter (TRI-CARB 2700TR, manufactured by Packard). The binding amount in the presence of 10 μmol/L […] (manufactured by Tocris) ((R)-(+)-[2,3-dihydro-5-methyl-3-(4-morpholinylmethyl)pyrrolo[1,2,3-de]-1,4-benzoxazin-6-yl]-1-naphthalenylmethanone) was considered to be a non-specific binding amount, and a difference between the total binding amount and the non-specific binding amount was considered to be a specific binding amount. The 50% inhibitory concentration (IC50 value) of the test compound against the specific binding was obtained, and the Ki value of the test substance was calculated from the 50% inhibitory concentration and the Kd value of the [^3H]CP55940 binding.

[1] = test system: rats with chronic constriction nerve injury; test: Analgesic effect in rats with chronic constriction nerve injury (von Frey filament); assay type: in vivo, rat; conditions: oral, dose of 50 mg/kg or less, one hour after administration, von Frey filaments
Description: Rats with chronic constriction nerve injury were produced by partially modifying the method of Mosconi and Kruger et al. (Pain, vol. 64, pp. 37-57 (1996))
Male Crl:CD(SD) rats were used for the experiments. Under pentobarbital anesthesia, the sciatic nerve of the left hind limb of the rat was exfoliated, and the exfoliated region was wrapped with a polyethylene tube (trade name: Intramedic, size: PE-60, manufactured by Becton Dickinson and Company) of 2 mm in length. On days 14 to 21 after the surgery, the rats were placed in an acrylic connected cage with a wire mesh floor (900 mm (length)×210 mm (depth)×140 mm (height)) consisting of 4 cages connected in a row and allowed to acclimate to the environment for at least 20 minutes, and then, the pain was evaluated.
The von Frey filament (trade name: touch test sensory evaluator, Model number: model 58011, manufactured by Muromachi Kikai) was used to evaluate pain, and the results were calculated as a pain threshold. That is, by using a von Frey filament of different stimulus intensity, stimulation was given to the plantar surface of the injured side of rats with chronic constriction nerve injury, and the stimulus intensity to cause paw withdrawal response was obtained. Then, the 50% pain threshold (Paw withdrawal threshold) (g) was calculated by the up down method of Dixon [Annual Review of Pharmacology and Toxicology, vol. 20, pp. 441-462 (1980)].
In the evaluation of the test compound, rats with 50% pain threshold of less than 4 g were used, and the test compound was dissolved in a 0.5% aqueous methyl cellulose solution and orally administered at a dose of 5 mL/kg. One hour after the administration, the pain threshold was measured using von Frey filaments.

human CB2 receptor = target: T2, human CB2 receptor (Homo sapiens, UniProt P34972); test: GTPγS binding experiment via human CB2 receptor (membrane fraction of CHO-K1 cells); assay type: biochemical; conditions: for Emax: read-out: Emax value (maximum effect of CP55940 as 100%)
T2 construct: expressed in transfected cells
T2 sequence (P34972 whole entry): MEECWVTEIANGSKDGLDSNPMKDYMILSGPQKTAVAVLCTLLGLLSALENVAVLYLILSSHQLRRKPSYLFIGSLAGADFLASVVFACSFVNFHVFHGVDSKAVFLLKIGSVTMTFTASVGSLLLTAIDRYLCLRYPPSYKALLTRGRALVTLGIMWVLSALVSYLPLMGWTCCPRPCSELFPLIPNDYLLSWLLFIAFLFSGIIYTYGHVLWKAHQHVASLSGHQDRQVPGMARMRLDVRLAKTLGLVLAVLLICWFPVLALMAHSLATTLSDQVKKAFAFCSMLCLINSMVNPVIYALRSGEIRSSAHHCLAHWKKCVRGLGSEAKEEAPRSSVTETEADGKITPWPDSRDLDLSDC
Description: A test was carried out according to the method of Hillard et al. [The Journal of Pharmacology and Experimental Therapeutics, vol. 289, p. 1427 (1999)]. As for a membrane specimen, a membrane fraction was prepared from CHO-K1 cells in which a human CB2 receptor [Nature, vol. 365, pp. 61-65 (1993)] was stably expressed and used. The membrane specimen (final concentration: 40 μg of protein/mL) was incubated together with a test compound and [^35S]GTPγS (manufactured by PerkinElmer) (final concentration: 0.05 nmol/L) in an assay buffer (50 mmol/L Tris-HCl buffer (pH 7.4), 100 mmol/L NaCl, 1 mmol/L EDTA, 3 mmol/L MgCl2, and 0.1% bovine serum albumin) containing 20 μmol/L guanosine 5′-diphosphate (GDP) at 30° C. for 1 hour, and the resulting mixture was filtered using a glass filter GF/B (manufactured by Whatman). After the glass filter was washed with the assay buffer, the radioactivity on the glass filter was measured using a liquid scintillation counter (TRI-CARB 2700TR, manufactured by Packard). The binding amount in the presence of 10 μmol/L GTPγS was considered to be a non-specific binding amount, and a difference between the total binding amount and the non-specific binding amount was considered to be a specific binding amount. The ratio of increase in the specific binding amount in the presence of the test compound to the specific binding amount in the absence of the test compound was considered to be an agonistic activity of the test compound. The concentration of the test compound that produces 50% of the maximum effect (EC50 value) was calculated by performing a nonlinear regression analysis using the concentration-response data. The percentage of the maximum effect of the test compound (Emax value) was calculated by considering the maximum effect of CP55940 (manufactured by Tocris) measured at the same time as 100%.

Structure (SMILES): CN(CC(F)(F)F)C(=O)c1cc(-c2cn(CC3CCOCC3)c(C(C)(C)C)n2)on1 [Compound 204, 5-[2-tert-Butyl-1-(tetrahydropyran-4-ylmethyl)-1H-imidazol-4-yl]-N-methyl-N-(2,2,2-trifluoroethyl)isoxazole-3-carboxamide]
- Ki (CB2 receptor): < 1000 nM
- 50% pain threshold (paw withdrawal threshold) [1]: significantly increased the pain threshold
- EC50 (human CB2 receptor): < 1000 nM
- Emax (human CB2 receptor): > 30%

Structure (SMILES): CCN(CC)C(=O)c1cc(-c2cn(CC3CCOCC3)c(C(C)(C)C)n2)ccc1F.Cl [Compound 66, 5-(2-tert-Butyl-1-(tetrahydropyran-4-ylmethyl)-1H-imidazol-4-yl)-N,N-diethyl-2-fluorobenzamide hydrochloride]
- Ki (CB2 receptor): < 1000 nM
- 50% pain threshold (paw withdrawal threshold) [1]: significantly increased the pain threshold
- EC50 (human CB2 receptor): < 1000 nM
- Emax (human CB2 receptor): > 30%

Reference: patent US8273738B2, “Imidazole derivatives” (priority 2006, dated 2012)
